Reference: the OligoGym collection
Oligonucleotides are given in HELM: sugar(base)linkage, 5' to 3'; d 2'-deoxyribose, r ribose, m 2'-O-methylribose, p phosphate. ss, as = sense and antisense strand

target: Mmp7 (rat); test: reporter assay of Huesken 2005; conditions: siRNA
Note: test concentration or dose not given here.

Substance	normalised inhibition (eCFP-eYFP dual reporter) [%]
RNA1{r(U)p.r(C)p.r(U)p.r(G)p.r(U)p.r(G)p.r(A)p.r(U)p.r(G)p.r(U)p.r(A)p.r(C)p.r(C)p.r(C)p.r(U)p.r(A)p.r(C)p.r(C)p.r(U)p.d(T)p.d(T)}|RNA2{r(A)p.r(G)p.r(G)p.r(U)p.r(A)p.r(G)p.r(G)p.r(G)p.r(U)p.r(A)p.r(C)p.r(A)p.r(U)p.r(C)p.r(A)p.r(C)p.r(A)p.r(G)p.r(A)p.d(A)p.d(C)}$$$RNA1{StrandType:ss}|RNA2{StrandType:as}$	55.2
RNA1{r(G)p.r(C)p.r(G)p.r(G)p.r(A)p.r(G)p.r(A)p.r(U)p.r(G)p.r(C)p.r(U)p.r(C)p.r(A)p.r(C)p.r(U)p.r(U)p.r(U)p.r(G)p.r(A)p.d(T)p.d(T)}|RNA2{r(U)p.r(C)p.r(A)p.r(A)p.r(A)p.r(G)p.r(U)p.r(G)p.r(A)p.r(G)p.r(C)p.r(A)p.r(U)p.r(C)p.r(U)p.r(C)p.r(C)p.r(G)p.r(C)p.d(C)p.d(G)}$$$RNA1{StrandType:ss}|RNA2{StrandType:as}$	108
RNA1{r(C)p.r(G)p.r(C)p.r(A)p.r(C)p.r(U)p.r(U)p.r(C)p.r(A)p.r(G)p.r(U)p.r(G)p.r(G)p.r(G)p.r(A)p.r(A)p.r(C)p.r(A)p.r(G)p.d(T)p.d(T)}|RNA2{r(C)p.r(U)p.r(G)p.r(U)p.r(U)p.r(C)p.r(C)p.r(C)p.r(A)p.r(C)p.r(U)p.r(G)p.r(A)p.r(A)p.r(G)p.r(U)p.r(G)p.r(C)p.r(G)p.d(G)p.d(T)}$$$RNA1{StrandType:ss}|RNA2{StrandType:as}$	91.1
RNA1{r(A)p.r(A)p.r(U)p.r(G)p.r(C)p.r(A)p.r(G)p.r(A)p.r(A)p.r(G)p.r(C)p.r(C)p.r(C)p.r(A)p.r(G)p.r(G)p.r(U)p.r(G)p.r(U)p.d(T)p.d(T)}|RNA2{r(A)p.r(C)p.r(A)p.r(C)p.r(C)p.r(U)p.r(G)p.r(G)p.r(G)p.r(C)p.r(U)p.r(U)p.r(C)p.r(U)p.r(G)p.r(C)p.r(A)p.r(U)p.r(U)p.d(A)p.d(T)}$$$RNA1{StrandType:ss}|RNA2{StrandType:as}$	86.1
RNA1{r(A)p.r(G)p.r(G)p.r(G)p.r(G)p.r(A)p.r(G)p.r(A)p.r(U)p.r(C)p.r(A)p.r(C)p.r(G)p.r(G)p.r(A)p.r(G)p.r(A)p.r(C)p.r(A)p.d(T)p.d(T)}|RNA2{r(U)p.r(G)p.r(U)p.r(C)p.r(U)p.r(C)p.r(C)p.r(G)p.r(U)p.r(G)p.r(A)p.r(U)p.r(C)p.r(U)p.r(C)p.r(C)p.r(C)p.r(C)p.r(U)p.d(T)p.d(G)}$$$RNA1{StrandType:ss}|RNA2{StrandType:as}$	102
RNA1{r(G)p.r(U)p.r(U)p.r(C)p.r(U)p.r(G)p.r(U)p.r(G)p.r(A)p.r(U)p.r(G)p.r(U)p.r(A)p.r(C)p.r(C)p.r(C)p.r(U)p.r(A)p.r(C)p.d(T)p.d(T)}|RNA2{r(G)p.r(U)p.r(A)p.r(G)p.r(G)p.r(G)p.r(U)p.r(A)p.r(C)p.r(A)p.r(U)p.r(C)p.r(A)p.r(C)p.r(A)p.r(G)p.r(A)p.r(A)p.r(C)p.d(T)p.d(G)}$$$RNA1{StrandType:ss}|RNA2{StrandType:as}$	105
RNA1{r(G)p.r(G)p.r(A)p.r(A)p.r(G)p.r(C)p.r(C)p.r(G)p.r(G)p.r(A)p.r(G)p.r(A)p.r(A)p.r(G)p.r(U)p.r(G)p.r(A)p.r(C)p.r(C)p.d(T)p.d(T)}|RNA2{r(G)p.r(G)p.r(U)p.r(C)p.r(A)p.r(C)p.r(U)p.r(U)p.r(C)p.r(U)p.r(C)p.r(C)p.r(G)p.r(G)p.r(C)p.r(U)p.r(U)p.r(C)p.r(C)p.d(T)p.d(G)}$$$RNA1{StrandType:ss}|RNA2{StrandType:as}$	83
RNA1{r(C)p.r(C)p.r(U)p.r(U)p.r(C)p.r(A)p.r(C)p.r(G)p.r(A)p.r(C)p.r(U)p.r(C)p.r(U)p.r(A)p.r(A)p.r(A)p.r(A)p.r(C)p.r(A)p.d(T)p.d(T)}|RNA2{r(U)p.r(G)p.r(U)p.r(U)p.r(U)p.r(U)p.r(A)p.r(G)p.r(A)p.r(G)p.r(U)p.r(C)p.r(G)p.r(U)p.r(G)p.r(A)p.r(A)p.r(G)p.r(G)p.d(T)p.d(A)}$$$RNA1{StrandType:ss}|RNA2{StrandType:as}$	126
RNA1{r(A)p.r(G)p.r(G)p.r(C)p.r(G)p.r(U)p.r(G)p.r(A)p.r(A)p.r(C)p.r(U)p.r(U)p.r(C)p.r(C)p.r(U)p.r(G)p.r(U)p.r(U)p.r(U)p.d(T)p.d(T)}|RNA2{r(A)p.r(A)p.r(A)p.r(C)p.r(A)p.r(G)p.r(G)p.r(A)p.r(A)p.r(G)p.r(U)p.r(U)p.r(C)p.r(A)p.r(C)p.r(G)p.r(C)p.r(C)p.r(U)p.d(G)p.d(A)}$$$RNA1{StrandType:ss}|RNA2{StrandType:as}$	91.1
RNA1{r(C)p.r(A)p.r(C)p.r(U)p.r(C)p.r(U)p.r(A)p.r(G)p.r(G)p.r(C)p.r(C)p.r(A)p.r(U)p.r(G)p.r(C)p.r(C)p.r(U)p.r(U)p.r(U)p.d(T)p.d(T)}|RNA2{r(A)p.r(A)p.r(A)p.r(G)p.r(G)p.r(C)p.r(A)p.r(U)p.r(G)p.r(G)p.r(C)p.r(C)p.r(U)p.r(A)p.r(G)p.r(A)p.r(G)p.r(U)p.r(G)p.d(T)p.d(T)}$$$RNA1{StrandType:ss}|RNA2{StrandType:as}$	101
RNA1{r(A)p.r(A)p.r(C)p.r(A)p.r(A)p.r(A)p.r(G)p.r(A)p.r(A)p.r(G)p.r(G)p.r(C)p.r(C)p.r(A)p.r(C)p.r(C)p.r(A)p.r(G)p.r(U)p.d(T)p.d(T)}|RNA2{r(A)p.r(C)p.r(U)p.r(G)p.r(G)p.r(U)p.r(G)p.r(G)p.r(C)p.r(C)p.r(U)p.r(U)p.r(C)p.r(U)p.r(U)p.r(U)p.r(G)p.r(U)p.r(U)p.d(T)p.d(T)}$$$RNA1{StrandType:ss}|RNA2{StrandType:as}$	87.1
RNA1{r(G)p.r(C)p.r(A)p.r(G)p.r(A)p.r(A)p.r(U)p.r(U)p.r(A)p.r(U)p.r(C)p.r(U)p.r(U)p.r(A)p.r(G)p.r(G)p.r(A)p.r(A)p.r(A)p.d(T)p.d(T)}|RNA2{r(U)p.r(U)p.r(U)p.r(C)p.r(C)p.r(U)p.r(A)p.r(A)p.r(G)p.r(A)p.r(U)p.r(A)p.r(A)p.r(U)p.r(U)p.r(C)p.r(U)p.r(G)p.r(C)p.d(G)p.d(C)}$$$RNA1{StrandType:ss}|RNA2{StrandType:as}$	132
RNA1{r(U)p.r(G)p.r(G)p.r(U)p.r(G)p.r(A)p.r(G)p.r(G)p.r(A)p.r(C)p.r(U)p.r(C)p.r(A)p.r(G)p.r(G)p.r(C)p.r(G)p.r(U)p.r(G)p.d(T)p.d(T)}|RNA2{r(C)p.r(A)p.r(C)p.r(G)p.r(C)p.r(C)p.r(U)p.r(G)p.r(A)p.r(G)p.r(U)p.r(C)p.r(C)p.r(U)p.r(C)p.r(A)p.r(C)p.r(C)p.r(A)p.d(T)p.d(C)}$$$RNA1{StrandType:ss}|RNA2{StrandType:as}$	69.8
RNA1{r(U)p.r(U)p.r(G)p.r(C)p.r(C)p.r(G)p.r(G)p.r(A)p.r(G)p.r(A)p.r(C)p.r(U)p.r(G)p.r(G)p.r(A)p.r(A)p.r(A)p.r(G)p.r(C)p.d(T)p.d(T)}|RNA2{r(G)p.r(C)p.r(U)p.r(U)p.r(U)p.r(C)p.r(C)p.r(A)p.r(G)p.r(U)p.r(C)p.r(U)p.r(C)p.r(C)p.r(G)p.r(G)p.r(C)p.r(A)p.r(A)p.d(A)p.d(C)}$$$RNA1{StrandType:ss}|RNA2{StrandType:as}$	1.9
RNA1{r(C)p.r(C)p.r(A)p.r(G)p.r(G)p.r(A)p.r(A)p.r(G)p.r(C)p.r(C)p.r(G)p.r(G)p.r(A)p.r(G)p.r(A)p.r(A)p.r(G)p.r(U)p.r(G)p.d(T)p.d(T)}|RNA2{r(C)p.r(A)p.r(C)p.r(U)p.r(U)p.r(C)p.r(U)p.r(C)p.r(C)p.r(G)p.r(G)p.r(C)p.r(U)p.r(U)p.r(C)p.r(C)p.r(U)p.r(G)p.r(G)p.d(G)p.d(A)}$$$RNA1{StrandType:ss}|RNA2{StrandType:as}$	72.2
RNA1{r(G)p.r(C)p.r(A)p.r(G)p.r(A)p.r(C)p.r(A)p.r(U)p.r(C)p.r(A)p.r(U)p.r(A)p.r(A)p.r(U)p.r(U)p.r(G)p.r(G)p.r(C)p.r(U)p.d(T)p.d(T)}|RNA2{r(A)p.r(G)p.r(C)p.r(C)p.r(A)p.r(A)p.r(U)p.r(U)p.r(A)p.r(U)p.r(G)p.r(A)p.r(U)p.r(G)p.r(U)p.r(C)p.r(U)p.r(G)p.r(C)p.d(A)p.d(G)}$$$RNA1{StrandType:ss}|RNA2{StrandType:as}$	95.9
RNA1{r(A)p.r(C)p.r(C)p.r(G)p.r(G)p.r(G)p.r(G)p.r(C)p.r(C)p.r(A)p.r(G)p.r(G)p.r(C)p.r(C)p.r(U)p.r(C)p.r(G)p.r(G)p.r(C)p.d(T)p.d(T)}|RNA2{r(G)p.r(C)p.r(C)p.r(G)p.r(A)p.r(G)p.r(G)p.r(C)p.r(C)p.r(U)p.r(G)p.r(G)p.r(C)p.r(C)p.r(C)p.r(C)p.r(G)p.r(G)p.r(U)p.d(G)p.d(C)}$$$RNA1{StrandType:ss}|RNA2{StrandType:as}$	11
RNA1{r(C)p.r(G)p.r(C)p.r(A)p.r(A)p.r(G)p.r(G)p.r(G)p.r(G)p.r(A)p.r(G)p.r(A)p.r(U)p.r(C)p.r(A)p.r(C)p.r(G)p.r(G)p.r(A)p.d(T)p.d(T)}|RNA2{r(U)p.r(C)p.r(C)p.r(G)p.r(U)p.r(G)p.r(A)p.r(U)p.r(C)p.r(U)p.r(C)p.r(C)p.r(C)p.r(C)p.r(U)p.r(U)p.r(G)p.r(C)p.r(G)p.d(A)p.d(A)}$$$RNA1{StrandType:ss}|RNA2{StrandType:as}$	97.3
RNA1{r(G)p.r(G)p.r(C)p.r(G)p.r(C)p.r(A)p.r(G)p.r(A)p.r(A)p.r(U)p.r(U)p.r(A)p.r(U)p.r(C)p.r(U)p.r(U)p.r(A)p.r(G)p.r(G)p.d(T)p.d(T)}|RNA2{r(C)p.r(C)p.r(U)p.r(A)p.r(A)p.r(G)p.r(A)p.r(U)p.r(A)p.r(A)p.r(U)p.r(U)p.r(C)p.r(U)p.r(G)p.r(C)p.r(G)p.r(C)p.r(C)p.d(T)p.d(G)}$$$RNA1{StrandType:ss}|RNA2{StrandType:as}$	134
RNA1{r(A)p.r(C)p.r(A)p.r(G)p.r(G)p.r(C)p.r(G)p.r(C)p.r(A)p.r(G)p.r(A)p.r(A)p.r(U)p.r(U)p.r(A)p.r(U)p.r(C)p.r(U)p.r(U)p.d(T)p.d(T)}|RNA2{r(A)p.r(A)p.r(G)p.r(A)p.r(U)p.r(A)p.r(A)p.r(U)p.r(U)p.r(C)p.r(U)p.r(G)p.r(C)p.r(G)p.r(C)p.r(C)p.r(U)p.r(G)p.r(U)p.d(T)p.d(C)}$$$RNA1{StrandType:ss}|RNA2{StrandType:as}$	75.6
